Data: patent US20120071496A1, “Aminopyrimidinamides As Pest Control Agents” (Bayer CropScience AG, priority 2009, published 2012)

How the values were obtained:
[1] = logP (HCOOH); type: physicochemical; details: for chromatographic logP: HCOOH (formic acid)
[2] = tested on: Spodoptera litura third instar larvae; assay: Test against tobacco cutworm (Spodoptera litura) larvae; type: in vivo; details: active compound concentration 100 ppm; immersed sweet potato leaves; after 7 days
Procedure: Unless not mentioned otherwise, the test solutions were prepared as follows:
Containing as solvent: Dimethylformamide, 3 parts by weight; and as emulsifier: Polyoxyethylene alkyl phenyl ether, 1 part by weight
Test Against Tobacco Cutworm (Spodoptera litura) Larvae
Leaves of sweet potato were immersed in the test solution at the appropriate concentration, and the leaves were dried in air. The leaves were then placed in a petri dish having a diameter of 9 cm, and ten Spodoptera litura at third instar larvae were released therein. The petri dishes were placed in a temperature-controlled chamber at 25° C. After 2 days and 4 days more sweet potato leaves were added. After 7 days, the number of dead larvae was counted to calculate the insecticidal activity. An insecticidal activity of 100% means that all larvae were killed, whereas an insecticidal activity of 0% means that no larva was killed.

[3] = tested on: mustard beetle larvae (Phaedon cochleariae); details: application rate 500 g/ha; sprayed Chinese cabbage leaf-disks; after 7 days
Procedure: Phaedon Cochleariae —Test; (Spray Application)
Chinese cabbage (Brassica pekinesis) leaf-disks are sprayed with a preparation of the active ingredient of the desired concentration. Once dry, the leaf disks are infested with mustard beetle larvae (Phaedon cochleariae).
After 7 days mortality in % is determined.

[4] = tested on: green peach aphid (Myzus persicae); assay: whole plant or invertebrate; details: in Brassica rapa, 144 h, read-out: mortality in % (aphids killed)
Procedure: Myzus Persicae—Test; (Spray Application) 2
Solvent: 78.0 parts by weight acetone • 1.5 parts by weight dimethylformamide Emulsifier: 0.5 parts by weight alkylarylpolyglcolether
After 6 days mortality in % is determined.

Structure (SMILES) | insecticidal activity [2] [%] | logP (HCOOH) ([1]; Table 2) | further results
CCc1ncccc1C(=O)Nc1c(NC2CC2)ncnc1-c1ccc(Cl)cc1 [1-177, N-[4-(4-Chlorophenyl)-6-cyclopropylaminopyemidin-5-yl]-2-ethylnicotinamide] | 100 | – | chromatographic logP ([1]; Table 2): 1.31
O=C(Nc1c(NC2CC2)ncnc1-c1ccc(F)cc1F)c1cccnc1CC(F)(F)F [1-254] | 100 | 1.83 | –
CCc1ncccc1C(=O)Nc1c(NC2CC2)ncnc1-c1ccc(Cn2nc(C(F)(F)F)nc2C(F)(F)F)cc1 [1-258] | 100 | 2.07 | –
CCCc1ncccc1C(=O)Nc1c(NC2CC2)ncnc1-c1ccc(Cn2nc(C(F)(F)F)nc2C(F)(F)F)cc1 [1-264] | 100 | 1.9 | –
CCc1ccccc1C(=O)Nc1c(NC2CC2)nc(C)nc1-c1ccccc1 [1-280] | – | – | mortality in % (beetle larvae killed) [3]: 1-280%
CCc1ncccc1C(=O)Nc1c(NC2CC2)ncnc1-c1ccc(Oc2ncc(C(F)(F)F)cc2Cl)cc1 [1-310] | 100 | 1.84 | –
CCc1ncccc1C(=O)Nc1c(Cl)ncnc1NC1CC1 [3-1, N-(4-Chloro-6-cyclopropylaminopyrimidin-5-yl)-2-ethylnicotinamide] | – | – | chromatographic logP ([1]; Table 4): 0.79; mortality at 500 g/ha [4]: ≥ 80%
